# Laboratory results from patent US5552155A, “Fusogenic lipsomes and methods for making and using same” (The Liposome Company, Inc., priority 1994, dated 1996).
# What was measured:
# [1] = TNS fluorescence pH titration: apparent pKa and % charged of aminolipids in liposomal membranes; type: physicochemical; settings: for pKa in the lipid bilayer (text / figure legend): TNS fluorescence titration, 10 mole % AL-1 in EPC/Chol (55:45), no pH gradient (nigericin); for Apparent pKa: in liposomes, from fit of TNS fluorescence titrations to Henderson-Hasselbach equation; for pKa's and relative charges at pH 7.5 (in words): compared with AL-1
# Protocol: Preparations were diluted to 0.25 mM total lipid in 5 mM HEPES, 5 mM ammonium, 2 μM TNS at pHs ranging from 3.0 to 10.0 The pH across the vesicle membranes was rendered equal by adding nigericin to a final concentration of 0.01 μM. The TNS fluorescence at each pH value was determined under the conditions given above.
# *The data were derived from TNS fluorescence titrations. Curves for each
# aminolipid were fitted to the HendersonHasselbach equation by iteratively
# varying pKa and maximum and minimum fluorescence.
# [2] = Lipid-mixing fusion assay by RET fluorescent probe dilution, EPC/DOPE/Chol liposomes; settings: for order of fusion traces, uppermost-lowermost / fusion of liposomes / fusion rate (in words): 5 mole % aminolipid, FIG. 9; for order of fusion traces, uppermost-lowermost: EPC/Chol/DOPE (35:20:45); for fusion of liposomes / fusion rate (in words): EPC/DOPE/Chol (35:20:45)
# Protocol: (§1) Fusion was monitored by the decrease in resonance energy transfer (RET) resulting from fluorescent probe dilution, as described by Struck et al. (1981). […] The external buffer was 20 mM HEPES (150 mM NaCl, pH 7.5). […] Labeled and unlabeled liposomes were mixed in a 1:3 ratio, and diluted to 0.2 mM total lipid. External buffer was exchanged for 300 mM sucrose, 1 mM citrate, pH 4.0, on Sephadex G-25 columns before diluting preparations to 10 mM lipid. For fusion assays, 20 μl of fluorescently labeled liposomes, and 60 μl unlabeled liposomes, were added to 3.92 ml of 20 mM HEPES, 150 mM NaCl, pH 7.5. After 5 min. of incubation at room temperature, a 3 ml aliquot was added to a cuvette, and the fluorescence was monitored over 5 minutes. Excitation and emission wavelengths were 465 and 535 nm, respectively, and an emission 530 nm cutoff filter was used. To dissipate the gradient and induce fusion, ammonium acetate was added to a final concentration of 100 mM at 30 seconds. The percent change in fluorescence (% F/Fmax) was determined by assigning zero fluorescence (F0) to a trace with no ammonium acetate added and Fmax to a trace measured after adding 100 μl of 25 mM Triton X-100, so that:
# (§2) % (F/Fmax)=100×((F-F0)/(Fmax -F0))
# To study the effect of aminolipid structure on the fusion of EPC/Chol/DOPE liposomes (35:20:45) liposomes were prepared with 5 mole % of the indicated aminolipid (AL-1-AL-6), an internal pH 4.0, 300 mM sodium citrate buffer, and an external 20 mM HEPES buffer (150 mM NaCl, pH 7.5). Fusion assays were carried out as described above.
# (§3) Membrane fusion was monitored by a loss in RET between the fluorescently labeled lipids NBD-PE and Rh-PE. When liposomes containing both of these labels fuse with unlabeled liposomes, the resulting dilution of the fluorescent probes gives increased fluorescence for NBD-PE.
# [3] = 2H-NMR phase behavior of AL-1-d4 in MLVs; type: physicochemical; settings: for phase behavior by 2H-NMR (in words): 10 mole % AL-1-d4 in EPC/Chol (55:45)
# Protocol: Freeze-thawed MLVs of 10 mole % AL-1-d4 in EPC/Chol (55:45) were prepared as described above in 100 mM ammonium acetate at pH 4.0 and pH 7.5 in deuterium-depleted water. Sample concentrations were approximately 150 mM total lipid. Broad line quadrupole spectra were recorded on a Bruker MSL200 spectrometer at 30.7 MHz, using a spin-echo sequence with a 5.3 μs 90° pulse and a 200 ms repeat delay. Temperature was maintained at 20° C. with a liquid nitrogen flow system. […] FIDs were transformed using 100 Hz line-broadening.
# Freeze-thawed MLVs containing 5 mole percent AL-1-d4 in EPC/Chol (55:45) were prepared in 20 mM HEPES, 20 mM ammonium acetate, 150 mM NaCl, pH 4.0 and pH 7.5, using deuterium-depleted water. Sample concentrations were approximately 200 mM total lipid. ^2 H-NMR broadline spectra were recorded at 46.175 MHz, on a home-built 300 MHz spectrometer using a 5 μs 90° pulse, 50 μs interpulse spacing, 30.5 μs ring-down delay, and a 300 ms repetition time. A quadrupole echo sequence with eight-step phase cycling was used to accumulate 200,000 scans. The resulting free induction decay (FID) was transformed with 100 Hz line-broadening. High resolution ^31 P spectra were recorded at 81 MHz on a Bruker MSL200 spectrometer, using a 2.8 μs pulse and 30 s repeat. Temperature was maintained at 23 degrees Celsius with a liquid nitrogen flow system. The FID was accumulated over 1000 scans, and transformed with 50 Hz line broadening.
# The use of MLVs in this experiment avoids the rapid tumbling of LUVs on the NMR time scale. […] At pH 7.5, the bilayer signal is no longer present, and a strong isotropic peak appears in the middle of the spectrum.
# [4] = Lipid asymmetry (transport of aminolipid to the inner monolayer) by TNS fluorescence; type: physicochemical; settings: internal pH 4, external pH 7.5
# Protocol: Aliquots of 90 μl were added to 2.9 ml of 20 mM HEPES, 150 mM NaCl, 5 μM TNS, pH 7.5, and fluorescence was monitored over 5 minutes.
# However, at higher concentrations, the fluorescence levels off and begins to decrease.
# The slow decreases in fluorescence observed in these curves is a result of photobleaching of TNS during the course of the experiments. […] The rapid movement of the AL-1 across the bilayer is advantageous for its use in controlling fusion.
# [5] = Lipid-mixing fusion assay by RET fluorescent probe dilution, EPC/Chol (55:45) liposomes; settings: for ΔF/ΔFmax (fusion): pH gradient dissipated by ammonium acetate
# Protocol: as §1, §2
# The labeled and unlabeled liposomes were mixed in a 1:3 ratio and diluted to 0.20 mM total lipid. The pH gradient was dissipated by the addition of ammonium acetate to a final concentration of 100 mM at 30 seconds.
# as §3
# [6] = Aggregation / stability of aminolipid-containing liposomes; type: physicochemical
# [7] = Lipid-mixing fusion assay by RET fluorescent probe dilution, EPC/DOPE/Chol liposomes
# [8] = Table 1, from TNS fluorescence titrations
# [9] = 10 mole % AL-1 in EPC/Chol (55:45)
structure (smiles),measurement,setting,value
CCCCCCCC/C=C\CCCCCCCC(=O)OCC(CN(C)C)OC(C)=O (racemic) [AL-3],pKa in the lipid bilayer (text / figure legend),[1],6.79
same,% Charged at pH 7.5,[1]; [8],16%
same,% Charged at pH 7.5,[1],16%
same,"order of fusion traces, uppermost-lowermost",[2],"AL-1, AL-5, AL-4, AL-3, AL-6, AL-2 and blank"
same,fusion of liposomes / fusion rate (in words),[2],substantially greater fusion rate
"CCCCCCCC/C=C\CCCCCCCC(=O)OCC(O)CN(C)C (racemic) [AL-2, ±-oleoyl-2-hydroxy-3-N,N-dimethylaminopropane]",pKa in the lipid bilayer (text / figure legend),[1],about 7.57
same,Apparent pKa,[1]; Table 1,7.57
same,% Charged at pH 7.5,[1]; [8],54%
same,"order of fusion traces, uppermost-lowermost",[2],"AL-1, AL-5, AL-4, AL-3, AL-6, AL-2 and blank"
same,fusion of liposomes / fusion rate (in words),[2],little increase in liposome fusion in comparison with liposomes not containing aminolipid
"CCCCCCCCCC(=O)OCC(CN(C)C)OC(=O)CCCCCCCCC (racemic) [AL-6, ±-1,2-didecanoyl-1-N,N,-dimethyl-aminopropane]",% Charged at pH 7.5,[1]; [8],17%
same,pKa's and relative charges at pH 7.5 (in words),[1],approach those for AL-1
same,"order of fusion traces, uppermost-lowermost",[2],"AL-1, AL-5, AL-4, AL-3, AL-6, AL-2 and blank"
same,fusion of liposomes / fusion rate (in words),[2],only limited mixing
CCCCCCCC/C=C\CCCCCCCC(=O)OCC(CN(C)C)OC(=O)CCC (racemic) [AL-4],Apparent pKa,[1]; Table 1,6.66
same,% Charged at pH 7.5,[1]; [8],13%
same,pKa's and relative charges at pH 7.5 (in words),[1],approach those for AL-1
same,"order of fusion traces, uppermost-lowermost",[2],"AL-1, AL-5, AL-4, AL-3, AL-6, AL-2 and blank"
same,fusion of liposomes / fusion rate (in words),[2],"further increases in the fusion rate, with rates approaching those achieved with AL-1--containing liposomes"
"[2H]/C(CCCCCCCC)=C(\[2H])CCCCCCCC(=O)OCC(CN(C)C)OC(=O)CCCCCCC/C([2H])=C(/[2H])CCCCCCCC (racemic) [AL-1-d4, rac-1-N,N-dimethylamino-2,3-bis(9,10-dideuteriooleoyl)propane]",2H-NMR quadrupolar splitting of signal believed to arise from aminolipid in HII phase,"[3]; 5 mole % AL-1-d4, EPC/DOPE/Chol, pH 7.5, FIG. 8A",about 12 kHz
same,phase behavior by 2H-NMR (in words),[3]; pH 4.0,"quadrupolar splittings for the chain-labeled positions of AL-1-d4, with the expected magnitude for lipid in the bilayer"
"CCCCCCCC/C=C\CCCCCCCC(=O)OCC(CN(C)C)OC(=O)CCCCCCC/C=C\CCCCCCCC (centres unmarked) [AL-1, 1-N,N-dimethylamino dioleoyl propane]",time until TNS fluorescence equal to that of EPC/Chol liposomes (virtually all AL-1 moved to the inner monolayer),[4]; [9],four
same,transbilayer movement to the inner monolayer (in words),[4]; pH gradient,virtually all of the AL-1 had moved to the inner monolayer
same,ΔF/ΔFmax (fusion),"[5]; 10 mole % AL-1, EPC/Chol (55:45)",~3%
same,ΔF/ΔFmax (fusion),"[5]; 20 mole % AL-1, EPC/Chol (55:45)",~3%
same,degree of fusion (in words),[5]; AL-1 in EPC/Chol (55:45),limited degree of fusion
same,liposome stability (in words),"[6]; 5 mole % AL-1, EPC/DOPE/Chol (35:20:45), pH 4.0 and external pH 7.5","stable liposomes were prepared, and these remained stable when the external pH was increased to 7.5"
same,liposome aggregation (in words),"[6]; 10 mole % AL-1, EPC/DOPE/Chol 35:20:45, low pH",some aggregation of liposomes was observed at low pH
same,liposome aggregation (in words),"[6]; 10 mole % AL-1, EPC/DOPE/Chol, DOPE above 35:20:45",rapid aggregation
same,liposome aggregation (in words),[6]; [9],aggregated
same,liposome aggregation (in words),"[6]; AL-1 greater than about 20 mole % in EPC/Chol, following extrusion",rapid and complete liposome aggregation
same,ΔF/ΔFmax (fusion),"[2]; 5 mole % AL-1, EPC/DOPE/Chol (35:20:45), first 5 minutes",greater than 10%
same,"order of fusion traces, uppermost-lowermost",[2],"AL-1, AL-5, AL-4, AL-3, AL-6, AL-2 and blank"
same,fusion rate with increasing DOPE (in words),"[7]; 10 mole % AL-1, DOPE replacing EPC up to 35:20:45 EPC/DOPE/Chol, FIG. 6",Increasing fusion rates were evident with increasing DOPE concentrations
same,ΔF/ΔFmax (fusion),"[7]; 10 mole % AL-1, EPC/DOPE/Chol 35:20:45, after 5 minutes",over 5%
same,ΔF/ΔFmax (fusion),"[7]; 10 mole % AL-1, EPC/DOPE/Chol (30:25:45), over 5 minutes after gradient dissipation",~10%
same,phase behavior by 2H-NMR (in words),[3]; pH 7.5,exists in separate fluid domains at pH 7.5
CCCCCCCC/C=C\CCCCCCCC(=O)OCC(CN(C)C)OC(=O)CCCCCCCCC (racemic) [AL-5],% Charged at pH 7.5,[1]; [8],14%
same,pKa's and relative charges at pH 7.5 (in words),[1],approach those for AL-1
same,"order of fusion traces, uppermost-lowermost",[2],"AL-1, AL-5, AL-4, AL-3, AL-6, AL-2 and blank"
same,fusion of liposomes / fusion rate (in words),[2],"further increases in the fusion rate, with rates approaching those achieved with AL-1--containing liposomes"
